The text below walks through data of publication PMC6015222, “Targeting Phosphopeptide Recognition by the Human BRCA1 Tandem BRCT Domain to Interrupt BRCA1-Dependent Signaling” (Cell Chemical Biology, 2018).

Usually IC50 stands for the concentration at which inhibition is half-maximal.

Data set [1] addresses T1, BRCA1 tBRCT (Homo sapiens, UniProt P38398).
T1 construct: BRCA1 tBRCT residues 1646-1859; made in house; host or cells: E. coli BL21(DE3)
The data set can be described thus: Competitive MST: inhibition of BACH1 phosphopeptide binding to BRCA1 tBRCT. The conditions noted are these: for IC50: MST, mean ± SD of three experiments, NB, no binding; for IC50 / activity in competitive MST, in words: BACH1 phosphopeptide vs BRCA1 tBRCT. How it is done: Protein domains used in the assay were labeled with NT-647-NHS fluorescent dye using the Monolith NT™ Protein Labeling Kit (NanoTemper Technologies). Assays were carried out in 20mM Tris buffer, pH 7.4, with 200mM NaCl, 0.05% Tween-20 and 2mM DTT. For the direct binding assay, 10μl of labeled protein at a final concentration of 20nM was mixed with 10μl of test compound and incubated on ice for 10 min. For the competitive assay, 10μl of labeled protein at a final concentration of 20nM was mixed with 2μM cognate peptide substrate at the EC80 concentration determined by prior titration using a 16-point serial dilution by direct-binding MST. For both assays, samples prepared as above were centrifuged at 15000 rpm at 4°C for 10 min and 4μl of the supernatant was loaded into premium glass capillaries (NanoTemper Technologies). MST analysis was performed at MST power of 40% and LED power of 80%, at 22°C temperature using a Monolith NT.115 (NanoTemper Technologies). An initial “Capillary Scan” was performed to scan for fluorescence across the length of the capillary tray to determine the exact position of each capillary before the MST measurement was started. Test compounds were assayed at 16 different concentrations by serial dilution, and data were analysed using NanoTemper analysis software. Kd values were determined using “T-jump + Thermophoresis” settings. The change in thermophoresis between different experimental conditions was expressed as the change in the normalized fluorescence (ΔFnorm), which is defined as Fhot/Fcold (F-values correspond to average fluorescence values between defined areas in the curve under steady-state conditions under control (Fcold) or experimental (Fhot) conditions. Titration of the non-fluorescent ligand causes a gradual change in thermophoresis, which is plotted as ΔFnorm to yield a binding curve, which was then fitted to derive binding constants.

Data set [2] in a line: Solubility in aqueous buffers. It is filed as physicochemical.
The target of data set [3] is T1, BRCA1 tBRCT. The data set can be described thus: AlphaScreen assay: displacement of cognate biotinylated phosphopeptide from BRCA1 tBRCT. The conditions noted are these: 10-point dose response, read-out: IC50, inhibition of binding of cognate phosphopeptide to BRCA1 tBRCT. How it is done: We tested 6x-Histidine-tagged BRCA1 tBRCT, TOPBP1 tBRCT 7/8 or GRB2 SH2, and their cognate biotinylated peptide substrates. Initial checkerboard titrations were carried out to determine the optimal concentration of protein and peptide for each screen. Assays were conducted in Costar 96-well flat bottom white polystyrene plates using assay buffer (20mM Tris buffer pH 7.4, 200mM NaCl, 0.05% Tween-20, 2mM DTT). 5x-working concentrations of the reagents were dispensed in 10μl each in the order: 6x-Histidine tagged protein, biotinylated peptide, test compound. Plates were incubated at room temperature for 20 min and 10 μl each of nickel chelate AlphaLISA® acceptor beads and AlphaScreen® Streptavidin donor beads (both from Perkin Elmer) at a final concentration of 20 μg/ml were added. Plates were covered with adhesive seals and incubated in the dark for 1 h at 25°C. The AlphaScreen® signal was read using TECAN infinite M1000 Pro microplate reader at excitation wavelength 680nm and emission wavelength 520-620nm. 1% DMSO controls were run in parallel, and used to calculate percent inhibition. A 10-point dose response was performed in triplicate to determine IC50 values for each compound.

Data set [4] deals with BRCT domain of poly-ADP ribose polymerase. Also noted: method as in Na et al., 2015. As to conditions: ref Na et al., 2015; cited from earlier work.
Data set [5] concerns the target T2, human BRCA1 tandem BRCT domain (residues 1646-1859) (human, UniProt P38398-1 1646-1859, NT-647-NHS fluorescent dye (in the MST assays only)).
T2 construct: BRCA1, human, tandem BRCT domain, residues 1646-1859; Synthetic gene in pET28a, codon optimised for E. coli; No removal of the His tag is described; also called BRCA1 tBRCT; 6x His-BRCA1 tBRCT; source: E. coli BL21(DE3), purified (HisTrap HP, Superdex-75 gel filtration); not shown: His6, N-terminal, kept
As to the kind of experiment: fluorescence polarisation; 75 nM BRCA1 tBRCT and 10 nM TAMRA-labelled BACH1 peptide, with compound at 125 uM; 20 mM Tris pH 7.4, 200 mM NaCl, 0.05% Tween-20, 2 mM DTT; room temperature. As to conditions: both partners purified.

Values joined by “and” are separate entries in the source; they are usually repeats but may differ in a detail not shown here. Equal values may be shown once. Non-standard residues stand in square brackets, D forms with d. TAMRA = tetramethylrhodamine label; pS = N[C@@H](COP(=O)(O)O)C(=O)O

T1 sequence (P38398 1646-1859): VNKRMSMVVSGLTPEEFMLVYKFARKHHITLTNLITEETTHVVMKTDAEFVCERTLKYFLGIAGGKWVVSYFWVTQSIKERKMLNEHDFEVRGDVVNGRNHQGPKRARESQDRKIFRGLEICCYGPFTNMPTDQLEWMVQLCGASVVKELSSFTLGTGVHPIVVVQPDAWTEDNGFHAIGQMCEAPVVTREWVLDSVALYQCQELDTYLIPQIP
T2 sequence (P38398 1646-1859): as above

`O=C(c1ccc2[nH]c(-c3ccncc3)nc2c1)N1CCN(Cc2ccccc2F)CC1` [CCBT2082, (4-(2-fluorobenzyl)piperazin-1-yl)(2-(pyridin-4-yl)-1H-benzo[d]imidazol-5-yl)methanone] yielded an IC50 in data set [1] of 0.315 ± 0.18 µM. Moreover, the “decrease in activity relative to Bractoppin” value in data set [1] (competitive MST) amounted to 5 fold. For the molecule `O=C(c1ccc2[nH]c(N3CCOCC3)nc2c1)N1CCN(Cc2ccccc2F)CC1` [CCBT2084, (4-(2-fluorobenzyl)piperazin-1-yl)(2-morpholino-1H-benzo[d]imidazol-5-yl) methanone], the “activity in competitive MST, in words” value in data set [1] is “abrogated activity”. Same read-out and setting: then `CC(C)c1nc2ccc(C(=O)N3CCN(Cc4ccccc4F)CC3)cc2[nH]1` [CCBT2009, (4-(2-fluorobenzyl)piperazin-1-yl) (2-isopropyl-1H-benzo[d]imidazol-6-yl) methanone], with “abrogated activity”. As for `Cc1nc2cc(C(=O)N3CCN(Cc4ccccc4F)C[C@@H]3C(C)C)ccc2[nH]1` [CCBT2906], the IC50 in data set [1] amounted to 1.7 µM. In the case of `Cc1nc2cc(C(=O)N3CCN(Cc4ccccc4F)CC3C(C)C)ccc2[nH]1` (stereo not drawn) [CCBT002, (4-(2-fluorobenzyl)-2-isopropylpiperazin-1-yl) (2-methyl-1H-benzo[d]imidazol-5-yl)methanone], the “solubility in aqueous buffers” value in data set [2] was “limited solubility”. In data set [3], the IC50 is 47.3 µM. For the molecule `Cc1nc2cc(C(=O)N3CCN(Cc4ccccc4F)CC3)ccc2[nH]1` [CCBT2907, (4-(2-fluorobenzyl)piperazin-1-yl)(2-methyl-1H-benzo[d]imidazol-5-yl)methanone], the IC50 in data set [1] was > 53 µM and ~53 µM.

As to `Cc1nc2cc(CN3CCN(Cc4ccccc4F)CC3)ccc2[nH]1` [CCBT2908, 5-((4-(2-fluorobenzyl)piperazin-1-yl)methyl)-2-methyl-1H-benzo[d]imidazole], in data set [1], the “activity in competitive MST, in words” value was “inactive”.

Turning to `Cc1ccc(CN2CCN(C(=O)c3ccc4nc(-c5ccccc5)[nH]c4c3)CC2)cc1` [CCBT2107, (4-(4-methylbenzyl)piperazin-1-yl)(2-phenyl-1H-benzo[d]imidazol-6-yl)methanone], the half-maximal inhibitory concentration (IC50) in data set [1] was 0.3 µM. In the case of `Cc1cc2c(C(C)C)c(O)c(O)c(C=O)c2c(O)c1-c1c(C)cc2c(C(C)C)c(O)c(O)c(C=O)c2c1O` [Gossypol], in data set [4], the “binding to the BRCT domain of poly-ADP ribose polymerase” value is “reported to bind”. `CC(C)CN1CCN(C(=O)c2ccc3[nH]c(-c4ccccc4)nc3c2)CC1` [CCBT2047, (4-isobutylpiperazin-1-yl)(2-phenyl-1H-benzo[d]imidazol-5-yl) methanone]: in data set [1], the “activity in competitive MST, in words” value is “abolishes activity”.

In data set [1], `O=C(c1ccc2nc(-c3ccccc3)[nH]c2c1)N1CCN(Cc2ccc(O)cc2)CC1` [CCBT2106, (4-(4-hydroxybenzyl)piperazin-1-yl)(2-phenyl-1H-benzo[d]imidazole-6-yl)methanone] returned an IC50 of 3.6 µM.

Turning to `Cc1nc2cc(C(=O)N3CCN(Cc4ccccc4F)C[C@H]3C(C)C)ccc2[nH]1` [CCBT2905, (R)-(4-(2-fluorobenzyl)-2-isopropylpiperazin-1-yl)(2-methyl-1H-benzo[d]imidazol-5-yl)methanone], the IC50 in data set [1] is 56 µM.

B1: TAMRA-labelled phosphopeptide from BACH1 (TAMRA_GGSRSTpSPTFNK-NH2) (peptide)
peptide: {TAMRA}-GGSRST[pS]PTFNK-NH2
notes: two added glycines before the BACH1 stretch; stretch around the Ser990 phosphosite; the helicase BRIP1 is meant; also called TAMRA-labeled BACH1 peptide; source: synthetic peptide, bought: Designer Bioscience
Turning to B1, in data set [5], the binding result is “binds”.
